Experimental data: paper PMC2819003 (Angewandte Chemie (International ed. in English), 2010)

Molecular target: T1, DPPS; decaprenyl diphosphate synthase (Homo sapiens, UniProt Q5T2R2)
T1 sequence (Q5T2R2 1-415): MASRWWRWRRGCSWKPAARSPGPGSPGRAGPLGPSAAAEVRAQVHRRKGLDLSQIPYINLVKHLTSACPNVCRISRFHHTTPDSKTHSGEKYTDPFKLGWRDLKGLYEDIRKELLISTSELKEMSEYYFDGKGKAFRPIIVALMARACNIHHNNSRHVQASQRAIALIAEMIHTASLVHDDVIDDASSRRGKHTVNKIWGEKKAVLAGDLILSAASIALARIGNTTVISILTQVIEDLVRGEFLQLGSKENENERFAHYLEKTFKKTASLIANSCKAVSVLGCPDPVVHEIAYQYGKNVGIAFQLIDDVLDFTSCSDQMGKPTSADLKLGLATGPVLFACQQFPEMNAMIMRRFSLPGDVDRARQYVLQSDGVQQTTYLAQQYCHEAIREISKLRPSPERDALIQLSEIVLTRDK
T1 sequence (Q86YH6 1-399 partner): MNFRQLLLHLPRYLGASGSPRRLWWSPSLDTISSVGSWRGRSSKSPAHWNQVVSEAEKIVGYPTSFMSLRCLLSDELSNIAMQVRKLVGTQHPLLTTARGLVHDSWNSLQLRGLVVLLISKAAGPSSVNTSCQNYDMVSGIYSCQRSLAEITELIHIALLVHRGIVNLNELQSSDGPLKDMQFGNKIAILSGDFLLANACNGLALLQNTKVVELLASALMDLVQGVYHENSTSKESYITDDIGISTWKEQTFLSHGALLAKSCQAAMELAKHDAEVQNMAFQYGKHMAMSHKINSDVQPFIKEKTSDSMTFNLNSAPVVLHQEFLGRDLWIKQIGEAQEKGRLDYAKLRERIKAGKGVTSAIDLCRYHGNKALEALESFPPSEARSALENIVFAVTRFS
Assay: DPPS inhibition assay
Assay type: biochemical

IC50: 5.5 µM
SMILES: O=P(O)(O)C(O)(Cn1ccnc1)P(=O)(O)O [zoledronate]
